Measured values as given in US9856288B2, “Tripeptide epoxyketone compound constructed by heterocycle and preparation method and use thereof” (ZHEJIANG UNIVERSITY, priority 2014, dated 2018).
Several values for one entry are separate records, joined by “and”; a condition that tells them apart may be missing. Equal values may be shown once. Read-outs that look alike come from different tables or passages of the source. One block for each compound: values may come before it.

Assays:
[1] = MTT proliferation inhibition, NCI-H929
Protocol: (§3) Experimental Method: Cell viability was determined by MTT method preformed as follows. Cells grown at the logarithmic growth phase was digested with a 0.01% trypsin, counted, plated in a 96-cell plate at a cell density of 2.0*10^3/well for 100 ml, and cultured in a 5% CO2 incubator at a temperature of 37° C. overnight. For each of the compounds, a gradient of six concentrations were set, in triplicate for each concentration. […] 20 ml of 5 mg/ml MTT was added to each of the cells. After incubation at a temperature of 37° C. for 3 h, supernatant was removed by suction. 100 ml of DMSO was added for dissolution. Absorption at 550 nm (L1) was determined by using SpectraMAX 340 with a reference wavelength of 690 nm (L2). The values of (L1-L2) were plotted against various concentrations, and fitted into a formula to give IC50.

[2] = MTT proliferation inhibition, RPMI8226
Protocol: as §3

[3] = biological target: Human proteasome chymotrypsin-like protease (Homo sapiens, UniProt P28074); assay: Proteasome CT-L inhibition, fluorescent substrate Suc-Leu-Leu-Val-Tyr-AMC; type: biochemical
Excerpt: Experimental Method: By using a fluorescent substrate Suc-Leu-Leu-Val-Tyr-AMC to observe the inhibition of various compounds on activity of the enzyme, the inhibitory effect of the compounds was preliminarily evaluated. Human proteasome chymotrypsin-like protease may hydrolyze the sequence Tyr-AMC of the substrate to release AMC.

MGC-803 = assay: MTT proliferation inhibition, MGC-803; type: cell-based; conditions: Homo sapiens
Protocol: (§1) […] of DMSO was added for dissolution.
(§2) The experimental method may be referred to Test Example 2, except that the cell strains of RPMI8226 and NCI-H929 were replaced with corresponding tumor cells.

MM-1S = assay: MTT cell activity, MM-1S; type: cell-based; conditions: Homo sapiens, MM1.S; 100 nM
Protocol: as §3

MTT cell activity, BORT = type: cell-based
Protocol: as §3

PC-3 = assay: MTT proliferation inhibition, PC-3; type: cell-based; conditions: Homo sapiens
Protocol: as §1, §2

[4] = system: subcutaneous xenograft of human myeloma RPMI 8226; assay: Growth inhibition of subcutaneous xenograft of human myeloma RPMI 8226 in NOD/SCID mice; type: in vivo; conditions: for Tumor inhibition (%) / Tumor weight (g) mean ± SD: RPMI8226 xenograft NOD/SCID mice; for Tumor weight (g), single animals: individual mice
Protocol: Experimental Method: Human myeloma RPMI8226 cell strain was inoculated subcutaneously at right flank of NOD/SCID mice with an inoculation quantity of 1×10^7 cells/mouse. After forming a xenograft, the experiment was started.
The diameters of subcutaneous xenografts of NOD/SCID mice were measured with a vernier caliper. After the tumor was grown to the size of 100-300 mm^3, the animals were grouped randomly. Equal volume of blank solvent was administered to the group of solvent control. During the experimentation, the diameters of subcutaneous xenografts were measured twice a week, and the mice were weighed at the same time.

LP1 = assay: MTT proliferation inhibition, LP1; type: cell-based; conditions: Homo sapiens, LP-1
Protocol: as §1, §2

MM-1R = assay: MTT cell activity, MM-1R; type: cell-based; conditions: 100 nM
NCI-H929 cell = assay: MTT proliferation inhibition, NCI-H929; conditions: Homo sapiens, NCI-H929, 72 h, read-out: Cytotoxicity IC50 (nM) NCI-H929 cell
Protocol: as §3

MCF-7 = assay: MTT proliferation inhibition, MCF-7; type: cell-based; conditions: Homo sapiens, MCF7
Protocol: as §1, §2

RPMI8226 cell = assay: MTT proliferation inhibition, RPMI8226; conditions: Homo sapiens, RPMI-8226, 72 h, read-out: Cytotoxicity IC50 (nM) RPMI8226 cell
Protocol: as §3

HCT116 = assay: MTT proliferation inhibition, HCT116; type: cell-based; conditions: Homo sapiens
Protocol: as §1, §2

K562 = assay: MTT cell activity, K562; type: cell-based; conditions: Homo sapiens
HELA = assay: MTT cell activity, HELA; type: cell-based; conditions: Homo sapiens
[5] = biological target: proteasome T-L active site (Homo sapiens, UniProt Q99436); assay: Proteasome T-L inhibition, substrate Bz-Val-Gly-Arg-AMC; type: biochemical
[6] = biological target: proteasome PGPH active site (Homo sapiens, UniProt P28072); assay: Proteasome PGPH inhibition, substrate Z-Leu-Leu-Glu-AMC; type: biochemical

SMILES: CCN1CC1(C)C(=O)[C@H](CC(C)C)NC(=O)[C@H](Cc1ccccc1)NC(=O)[C@H](CC(C)C)NC(=O)N1CCC(C(=O)Nc2cnccn2)CC1 (stereo partly drawn) [Compound 5w, 4-(pyrazin-2-yl carbamoyl)piperidin-1-oyl-Leu-Phe-Leu-(N-ethyl aziridinone)]
- IC50 [1]: > 1000 nM
- IC50 [2]: > 1000 nM

- IC50 [3]: 90.8 nM
SMILES: CC(C)C[C@H](NC(=O)N1CCN(C(=O)c2cnccn2)CC1)C(=O)N[C@@H](Cc1ccccc1)C(=O)N[C@@H](CC(C)C)C(=O)[C@@]1(C)CO1 [Compound 5c, 4-(pyrazin-2-oyl)piperazin-1-oyl-Leu-Phe-Leu-epoxy ketone]
- IC50 [1]: 100 nM
- IC50 [2]: 28.9 nM

SMILES: CC(C)C[C@H](NC(=O)N1CCC(C(=O)Nc2cnccn2)CC1)C(=O)N[C@@H](Cc1ccccc1)C(=O)N[C@@H](CC(C)C)C(=O)C1(C)CN1 (stereo partly drawn) [Compound 5v, 4-(pyrazin-2-yl carbamoyl)piperidin-1-oyl-Leu-Phe-Leu-aziridinone]
- IC50 [1]: > 1000 nM
- IC50 [2]: > 1000 nM

- IC50 (MGC-803): 8.95 ± 0.12 nM
- IC50 (PC-3): 24.2 ± 2.72 µM
- IC50 (MCF-7): 1.02 ± 0.07 µM
- IC50 (HCT116; HCT-116, MTT): 8.93 ± 1.44 µM
SMILES: CC(C)C[C@H](NC(=O)[C@H](CCc1ccccc1)NC(=O)CN1CCOCC1)C(=O)N[C@@H](Cc1ccccc1)C(=O)N[C@@H](CC(C)C)C(=O)[C@@]1(C)CO1 [Carfilzomib, reference compound]
- activity at 0.1 µM (MM-1S): 76.2 ± 1.36%
- activity at 1 µM (MTT cell activity, BORT): 61.1 ± 2.49%
- Tumor inhibition (%) ([4]; 4 mg/kg): 58.10%
- Tumor weight (g) mean ± SD ([4]; 4 mg/kg): 0.53 ± 0.21 g
- Tumor weight (g), single animals ([4]; 4 mg/kg): 0.57 g and 0.38 g and 0.32 g and 0.85 g
- IC50 (LP1): 22.7 ± 2.51 nM
- activity at 0.1 µM (MM-1R): 92.2 ± 6.34%
- IC50 (NCI-H929 cell): 28.8 nM
- IC50 (RPMI8226 cell): 3 nM
- activity at 10 µM (K562): 58.6 ± 1.04%
- activity at 10 µM (HELA): 61.2 ± 3.44%

SMILES: CC(C)C[C@H](NC(=O)N1CCC(C(=O)Nc2cnccn2)CC1)C(=O)N[C@@H](Cc1ccccc1)C(=O)N[C@@H](CC(C)C)C(=O)C1(C)CS1 (stereo partly drawn) [Compound 5t, 4-(pyrazin-2-yl carbamoyl)piperidin-1-oyl-Leu-Phe-Leu-cyclothione]
- IC50 [1]: > 1000 nM
- IC50 [2]: > 1000 nM

SMILES: CC(C)C[C@H](NC(=O)[C@H](Cc1ccccc1)NC(=O)c1cnccn1)B(O)O [Bortezomib]
- Tumor inhibition (%) ([4]; 1 mg/kg): 34.78%
- Tumor weight (g) mean ± SD ([4]; 1 mg/kg): 0.83 ± 0.25 g
- Tumor weight (g), single animals ([4]; 1 mg/kg): 1.21 g and 0.38 g and 0.92 g and 0.90 g and 0.74 g and 0.80 g
- IC50 (NCI-H929 cell): 9.5 nM
- IC50 (RPMI8226 cell): 1.8 nM

SMILES: CC(C)C[C@H](NC(=O)N1CCC(C(=O)Nc2ccc(F)cc2)CC1)C(=O)N[C@@H](Cc1ccccc1)C(=O)N[C@@H](CC(C)C)C(=O)C1(C)CS1 (stereo partly drawn) [Compound 5u, 4-(4-fluorophenyl carbamoyl)piperidin-1-oyl-Leu-Phe-Leu-cyclothione]
- IC50 [1]: > 1000 nM
- IC50 [2]: > 1000 nM

- IC50 (MGC-803): 3.72 ± 0.13 nM
- IC50 [5]: 3180 ± 47.2 nM
- T-L (Fold/CT-L) ([5]; ratio of T-L IC50 to CT-L IC50): (2107.0)
- IC50 (PC-3): 7.74 ± 0.77 µM
- PGHP (Fold/CT-L) ([6]; ratio of PGHP IC50 to CT-L IC50): 321.0
- IC50 ([6]; read-out: IC50 (nM) PGHP): 485 ± 26.1 nM
- IC50 (MCF-7): 0.42 ± 0.04 µM
- IC50 [3]: 1.5 nM
- IC50 (HCT116; HCT-116, read-out: IC50 HCT116): 0.00572 ± 0.00072 µM
SMILES: CC(C)C[C@H](NC(=O)N1CCC(C(=O)Nc2ccccn2)CC1)C(=O)N[C@@H](Cc1ccccc1)C(=O)N[C@@H](CC(C)C)C(=O)[C@@]1(C)CO1 [Compound 5k, 4-(pyridin-2-yl carbamoyl)piperidin-1-oyl-Leu-Phe-Leu-epoxy ketone]
- activity at 0.1 µM (MM-1S): 72.2 ± 3.19%
- activity at 1 µM (MTT cell activity, BORT): 54.5 ± 2.13%
- Tumor inhibition (%) ([4]; 4 mg/kg): 53.62%
- Tumor weight (g) mean ± SD ([4]; 4 mg/kg): 0.59 ± 0.24 g
- Tumor weight (g), single animals ([4]; 4 mg/kg): 0.20 g and 0.66 g and 0.44 g and 0.52 g and 0.72 g and 0.98 g
- IC50 (LP1): 15.2 ± 2.82 nM
- activity at 0.1 µM (MM-1R): 88.2 ± 7.24%
- IC50 [1]: 15.3 nM
- IC50 [2]: 2.5 nM
- activity at 10 µM (K562): 55.6 ± 1.53%
- activity at 10 µM (HELA): 55.8 ± 3.53%
